The source of these data is US10105357B2, “Indication of antibiotic drugs for preparation of cancer inhibition pharmaceutical composition” (LAUNX BIOMEDICAL CO., LTD., priority 2014, dated 2018).

Common to all, as to assay type: cell-based, human
Data set [1] has as its system HepG2 (Hepatocellular Carcinoma). Briefly: Cell viability analysis, hepatic cancer HepG2. The conditions noted are these: Homo sapiens.
Data set [2] has as its system HeLa (Cervix Adenocarcinoma). The experiment in a line: Cell viability analysis, cervical cancer HeLa. The conditions noted are these: Homo sapiens, HeLa.
Data set [3] concerns PC3 (p53−) (Prostate Adenocarcinoma). Briefly: Cell viability analysis, prostate cancer PC3. To be noted: for viability at 10 µM: Homo sapiens.
Data set [4] deals with AGS (Gastric Adenocarcinoma). The experiment in a line: Cell viability analysis, gastric cancer AGS. To be noted: Homo sapiens.
Data set [5] concerns MCF7 (Mammary Gland, Adenocarcinoma). The experiment in a line: Cell viability analysis, breast cancer MCF7. The conditions noted are these: Homo sapiens.
Data set [6] relates to A549 (Lung Adenocarcinoma). Briefly: Cell viability analysis, lung cancer A549. To be noted: for viability at 10 µM: Homo sapiens.
The subject of a further data set is cancer cell lines. Briefly: Cell viability analysis (WST-1) on cancer cell lines. The conditions noted are these: drug 10 μM, 72 hours, WST-1; Table 3.
The test system of data set [7] is LoVo (Colorectal Adenocarcinoma). The experiment in a line: Cell viability analysis, colon cancer LoVo. The conditions noted are these: for viability at 10 µM: Homo sapiens, LoVo.
Data set [8] has as its system HI650 (Lung Adenocarcinoma). The experiment in a line: Cell viability analysis, lung cancer HI650. The conditions noted are these: Homo sapiens.
Data set [9] deals with HL-60 (Acute Promyelocytic Leukemia). Briefly: Cell viability analysis, leukemia HL-60. The conditions noted are these: Homo sapiens.
The test system of data set [10] is TSGH-8301 (Urinary Bladder Carcinoma). Briefly: Cell viability analysis, bladder cancer TSGH-8301. To be noted: for viability at 10 µM: Homo sapiens.
Data set [11] deals with A375 (Amelanotic Melanoma). The experiment in a line: Cell viability analysis, skin cancer A375. To be noted: for viability at 10 µM: Homo sapiens.
Data set [12] concerns MKN-45 (Gastric Adenocarcinoma). Briefly: Cell viability analysis, gastric cancer MKN-45. The conditions noted are these: for viability at 10 µM: Homo sapiens.
[13] abbreviates: HepG2, 72 h, read-out: cell viability (survival rate), HepG2, drug 10 μM, 72 hours, WST-1, OD450 nm.
Setting [14] is: 72 h, read-out: cell viability (survival rate), HeLa, drug 10 μM, 72 hours, WST-1, OD450 nm.
Where [15] appears, read: 72 h, read-out: cell viability (survival rate), PC3, drug 10 μM, 72 hours, WST-1, OD450 nm.
Setting [16] is: 72 h, read-out: cell viability (survival rate), AGS, drug 10 μM, 72 hours, WST-1, OD450 nm.
[17] abbreviates: MCF7, 72 h, read-out: cell viability (survival rate), MCF7, drug 10 μM, 72 hours, WST-1, OD450 nm.
Setting [18] is: A549, 72 h, read-out: cell viability (survival rate), A549, drug 10 μM, 72 hours, WST-1, OD450 nm.
Setting [19] is: 72 h, read-out: cell viability (survival rate), LoVo, drug 10 μM, 72 hours, WST-1, OD450 nm.
The mark [20] stands for this setting: NCI-H1650, 72 h, read-out: cell viability (survival rate), H1650, drug 10 μM, 72 hours, WST-1, OD450 nm.
Where [21] appears, read: HL-60, 72 h, read-out: cell viability (survival rate), HL-60, drug 10 μM, 72 hours, WST-1, OD450 nm.
[22] abbreviates: 72 h, read-out: cell viability (survival rate), TSGH, drug 10 μM, 72 hours, WST-1, OD450 nm.
Setting [23] is: A-375, 72 h, read-out: cell viability (survival rate), A375, drug 10 μM, 72 hours, WST-1, OD450 nm.
Setting [24] is: MKN-45, 72 h, read-out: cell viability (survival rate), MKN-45, drug 10 μM, 72 hours, WST-1, OD450 nm.
Setting [25] is: HepG2, drug 10 μM, 72 hours, WST-1, OD450 nm, read-out: cell viability (survival rate), HepG2.
Setting [26] is: drug 10 μM, 72 hours, WST-1, OD450 nm, read-out: cell viability (survival rate), HeLa.
Where [27] appears, read: drug 10 μM, 72 hours, WST-1, OD450 nm, read-out: cell viability (survival rate), PC3.
Setting [28] is: drug 10 μM, 72 hours, WST-1, OD450 nm, read-out: cell viability (survival rate), AGS.
The mark [29] stands for this setting: MCF7, drug 10 μM, 72 hours, WST-1, OD450 nm, read-out: cell viability (survival rate), MCF7.
Setting [30] is: A549, drug 10 μM, 72 hours, WST-1, OD450 nm, read-out: cell viability (survival rate), A549.
Setting [31] is: drug 10 μM, 72 hours, WST-1, OD450 nm, read-out: cell viability (survival rate), LoVo.
Where [32] appears, read: NCI-H1650, drug 10 μM, 72 hours, WST-1, OD450 nm, read-out: cell viability (survival rate), H1650.
Setting [33] is: HL-60, drug 10 μM, 72 hours, WST-1, OD450 nm, read-out: cell viability (survival rate), HL-60.
Where [34] appears, read: drug 10 μM, 72 hours, WST-1, OD450 nm, read-out: cell viability (survival rate), TSGH.
Where [35] appears, read: A-375, drug 10 μM, 72 hours, WST-1, OD450 nm, read-out: cell viability (survival rate), A375.
Setting [36] is: MKN-45, drug 10 μM, 72 hours, WST-1, OD450 nm, read-out: cell viability (survival rate), MKN-45.

Structures are written as SMILES. Structures can show the parent of a compound that is named as a salt. Where two headings read alike, the source gives them in different places. Positions of bridges follow the written chain, without caps; N, C: chain ends. Non-standard residues stand in square brackets, D forms with d. Residues, ends and D or L forms follow the SMILES beside them. *: point of attachment. Ileψ(thiazoline)Cys = CC[C@H](C)[C@H](N)C1=N[C@H](C(=O)*)CS1; dOrn = NCCC[C@@H](N)C(=O)O

Broadly, the viability is a read-out of living cells in per cent, often relative to untreated cells.

As for `CCn1cc(C(=O)O)c(=O)c2cc(F)c(N3CCNCC3)cc21` [Norfloxacin (Norxacin), Norfloxacin], the viability at 10 µM in data set [1] (setting [13]) came to 90.5%; in data set [2] (setting [14]), 78.7%; in [3] (setting [15]), 72.2%; in data set [4] (setting [16]), 63.8%; in [5] (setting [17]), 94.8%; in [6] (setting [18]) it was 84.8%. The viability at 10 µM in data set [7] (setting [19]) is 88%; in data set [8] (setting [20]), 75%; in data set [9] (setting [21]) it was 87.7%; in [10] (setting [22]), 75.9%; in [11] (setting [23]), 73.8%; in data set [12] (setting [24]), 68.9%. In the data set with cancer cell lines, the “inhibition effect on different cancer cell lines” value is “significant inhibition effect”.

As to `Nc1nc2c(ncn2CCC(CO)CO)c(=O)[nH]1` [Penciclovir], the viability at 10 µM in [1] (setting [13]) was 95.7%; in data set [2] (setting [14]), 81.7%; in data set [3] (setting [15]), 106%; in data set [4] (setting [16]), 71%; in data set [5] (setting [17]), 110%; in data set [6] (setting [18]) it was 74.7%. The viability at 10 µM came out at 98.5% in data set [7] (setting [19]); 71.5% in data set [8] (setting [20]); 114% in data set [9] (setting [21]); 79.1% in data set [10] (setting [22]); 64.2% in data set [11] (setting [23]); 98.5% in [12] (setting [24]). Besides, the “inhibition effect on different cancer cell lines” value with cancer cell lines is given as “significant inhibition effect”.

With `Cc1cc(NS(=O)(=O)c2ccc(N)cc2)no1` [Sulfamethoxazole], the viability at 10 µM in [1] (setting [13]) worked out at 115%; in data set [2] (setting [14]), 87.8%; in [3] (setting [15]), 44.9%; in data set [4] (setting [16]), 67.7%; in data set [5] (setting [17]), 46.1%; in data set [6] (setting [18]), 43.9%. The viability at 10 µM was found to be 71.7% in data set [7] (setting [19]); 85.8% in data set [8] (setting [20]); 99.4% in data set [9] (setting [21]); 62.1% in data set [10] (setting [22]); 44.3% in data set [11] (setting [23]); 60.7% in data set [12] (setting [24]). Also, the “inhibition effect on different cancer cell lines” value in the data set with cancer cell lines is “significant inhibition effect”.

As for `CN(C)[C@@H]1C(O)=C(C(N)=O)C(=O)[C@@]2(O)C(O)=C3C(=O)c4c(O)cccc4[C@@](C)(O)[C@H]3[C@H](O)[C@@H]12` [Oxytetracycline dihydrate], the viability at 10 µM in data set [1] (setting [13]) stood at 93.4%; in data set [2] (setting [14]) it was 65.6%; in [4] (setting [16]), 71.7%; in data set [5] (setting [17]), 34.2%; in data set [8] (setting [20]), 73.8%; in [9] (setting [21]), 99.3%. For the same compound, the “cell viability (survival rate), PC3” value in data set [3] (human, 72 h, 10 µM) is 42.1. Further, the “cell viability (survival rate), A549” value in data set [6] (human, 72 h, 10 µM) is listed as 22.1. Further, the “inhibition effect on different cancer cell lines” value in the data set on cancer cell lines is on record as “significant inhibition effect”. Besides, the “cell viability (survival rate), LoVo” value in data set [7] (human, 72 h, 10 µM) is recorded as 47.0. Besides, the “cell viability (survival rate), TSGH” value in data set [10] (human, 72 h, 10 µM) turned out to be 53.4. In addition, the “cell viability (survival rate), A375” value in [11] (human, 72 h, 10 µM) is listed as 72.5. Besides, the “cell viability (survival rate), MKN-45” value in data set [12] (human, 72 h, 10 µM) is on record as 81.4.

Regarding `CC[C@H](C)[C@H](N)C1=N[C@H](C(=O)N[C@@H](CC(C)C)C(=O)N[C@H](CCC(=O)O)C(=O)N[C@H](C(=O)N[C@H]2CCCCNC(=O)[C@H](CC(N)=O)NC(=O)[C@@H](CC(=O)O)NC(=O)[C@H](Cc3cnc[nH]3)NC(=O)[C@@H](Cc3ccccc3)NC(=O)[C@H]([C@@H](C)CC)NC(=O)[C@@H](CCCN)NC2=O)[C@@H](C)CC)CS1` [Bacitracin] ({Ileψ(thiazoline)Cys}-L[dE]IK[dOrn]I[dF]H[dD]N; lactam 4-C), the viability at 10 µM in data set [1] (setting [13]) amounted to 86.4%; in data set [2] (setting [14]) it was 68.4%; in data set [3] (setting [15]), 70%; in [4] (setting [16]) it was 61.4%; in data set [5] (setting [17]), 41.4%; in [6] (setting [18]), 51.4%. The viability at 10 µM was 69.9% in [7] (setting [19]); 65.4% in data set [8] (setting [20]); 85.9% in data set [9] (setting [21]); 68.3% in data set [10] (setting [22]); 54.7% in data set [11] (setting [23]); 46.9% in data set [12] (setting [24]). In addition, in the data set on cancer cell lines, the “inhibition effect on different cancer cell lines” value was “significant inhibition effect”.

As for `CC(C)OC(=O)OCOP(=O)(CO[C@H](C)Cn1cnc2c(N)ncnc21)OCOC(=O)OC(C)C` [Tenofovir Disoproxil Fumarate], the viability at 10 µM came to 93.7% in [1] (setting [25]); 85.7% in data set [2] (setting [26]); 66.9% in data set [3] (setting [27]); 54.7% in [4] (setting [28]); 68.7% in data set [5] (setting [29]); 47% in data set [6] (setting [30]). Moreover, the viability at 10 µM in data set [7] (setting [31]) was found to be 75.8%; in [8] (setting [32]), 50.9%; in data set [9] (setting [33]), 93.4%; in [10] (setting [34]), 88.2%; in data set [11] (setting [35]), 67.1%; in [12] (setting [36]), 71.6%. Also, the “inhibition effect on different cancer cell lines” value with cancer cell lines is listed as “significant inhibition effect”.

Regarding `COc1cccc(N(C)C(=S)Oc2ccc3c(c2)CCCC3)n1` [Liranaftate], the viability at 10 µM in data set [1] (setting [25]) was found to be 79.8%; in data set [2] (setting [26]) it was 89%; in data set [3] (setting [27]) it was 92.7%; in data set [4] (setting [28]), 73.6%; in data set [5] (setting [29]) it was 84.8%; in data set [6] (setting [30]) it was 67.1%. For the same compound, the viability at 10 µM in data set [7] (setting [31]) worked out at 86.6%; in data set [8] (setting [32]), 50.7%; in data set [9] (setting [33]), 92%; in data set [10] (setting [34]) it was 108%; in data set [11] (setting [35]), 84.5%; in [12] (setting [36]), 76.7%. In addition, the “inhibition effect on different cancer cell lines” value with cancer cell lines is “significant inhibition effect”.
